Several values for one entry are separate records, joined by “and”; a condition that tells them apart may be missing. Equal entries are not always repeated.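 Test compounds were applied to cells in 96-well plates for 48 hours at 5 doses. Abbreviation: GI50, concentration required for 50% inhibition of growth.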 Activity calls are given as the source filed them. Cut-off read from the data, not from the text of the source: active = GI50 up to about 1.1 µM and inactive = higher.
Key:
Assay in all cases: inhibition of tumour cell growth, NCI panel, 48 h
786-0 = test system: 786-0
A498 = test system: A498
A549 = test system: A549
CAKI-1 = test system: CAKI-1
DU-145 = test system: DU-145
EKVX = test system: EKVX
HCT-15 = test system: HCT-15
HOP-62 = test system: HOP-62
IGROV-1 = test system: IGROV-1
Malme-3M = test system: Malme-3M
NCI-H23 = test system: NCI-H23
NCI-H522 = test system: NCI-H522
OVCAR-3 = test system: OVCAR-3
SK-MEL-2 = test system: SK-MEL-2
SNB-19 = test system: SNB-19
SNB-75 = test system: SNB-75
UO-31 = test system: UO-31
NCI-H226 = test system: NCI-H226
RPMI-8226 = test system: RPMI-8226
SK-MEL-5 = test system: SK-MEL-5

SMILES | GI50 (786-0) | GI50 (A498) | GI50 (A549) | GI50 (CAKI-1) | GI50 (DU-145) | GI50 (EKVX) | GI50 (HCT-15) [µM] | GI50 (HOP-62) | GI50 (IGROV-1) | GI50 (Malme-3M) | GI50 (NCI-H23) | GI50 (NCI-H522) | GI50 (OVCAR-3) | GI50 (SK-MEL-2) | GI50 (SNB-19) | GI50 (SNB-75) | GI50 (UO-31) | GI50 (NCI-H226) | GI50 (RPMI-8226) | GI50 (SK-MEL-5)
O=C(N/N=C\c1cccc(O)c1)c1ccncc1 | > 100 µM (inactive) | > 100 µM (inactive) | > 100 µM (inactive) | > 100 µM (inactive) | > 100 µM (inactive) | > 100 µM (inactive) | > 100 | > 100 µM (inactive) | > 100 µM (inactive) | > 100 µM (inactive) | > 100 µM (inactive) | > 100 µM (inactive) | > 100 µM (inactive) | > 100 µM (inactive) | > 100 µM (inactive) | > 100 µM (inactive) | > 100 µM (inactive) | – | – | –
CC(=O)c1c(-c2cccc3ccccc23)c(C#N)c(=S)n(C2OC(CO)C(O)C(O)C2O)c1C (stereo not given) | > 100 µM (inactive) | > 100 µM (inactive) | > 100 µM (inactive) | 53.1 µM (inactive) | > 100 µM (inactive) | 11.1 µM (inactive) | > 100 | 54.8 µM (inactive) | > 100 µM (inactive) | – | > 100 µM (inactive) and 52.2 µM (inactive) | > 100 µM (inactive) | > 100 µM (inactive) | > 100 µM (inactive) | 59.7 µM (inactive) | > 100 µM (inactive) | 87.5 µM (inactive) | > 100 µM (inactive) | 53.2 µM (inactive) | > 100 µM (inactive)
NC(=O)N/N=C1/CCC(O)CC1CC(=O)O (stereo not given) | > 100 µM (inactive) | > 100 µM (inactive) | > 100 µM (inactive) | > 100 µM (inactive) | > 100 µM (inactive) | > 100 µM (inactive) | > 100 | > 100 µM (inactive) | > 100 µM (inactive) | > 100 µM (inactive) | > 100 µM (inactive) | > 100 µM (inactive) | > 100 µM (inactive) | > 100 µM (inactive) | > 100 µM (inactive) | – | > 100 µM (inactive) | > 100 µM (inactive) | > 100 µM (inactive) | > 100 µM (inactive)
CCOC(=O)c1cc2c([nH]1)c(O)cc1c2ccn1Cc1ccccc1 | 18.1 µM (inactive) | 29.8 µM (inactive) | 13.7 µM (inactive) | 22 µM (inactive) | 17.8 µM (inactive) | 12.8 µM (inactive) | 15.1 | 17.7 µM (inactive) | 19.3 µM (inactive) | 18.5 µM (inactive) | 13.7 µM (inactive) | – | 14.6 µM (inactive) | 20.4 µM (inactive) | 14.2 µM (inactive) | 22.2 µM (inactive) | 14.9 µM (inactive) | 15.1 µM (inactive) | 8.41 µM (inactive) | 12.1 µM (inactive)
N[C@@H]1C[C@H](N)c2c(Cl)sc(Cl)c21 | > 100 µM (inactive) | 61.5 µM (inactive) | > 100 µM (inactive) | > 100 µM (inactive) | > 100 µM (inactive) | > 100 µM (inactive) | > 100 | > 100 µM (inactive) | > 100 µM (inactive) | – | > 100 µM (inactive) | – | > 100 µM (inactive) | > 100 µM (inactive) | > 100 µM (inactive) | > 100 µM (inactive) | > 100 µM (inactive) | > 100 µM (inactive) | > 100 µM (inactive) | > 100 µM (inactive)
CCCCN1C(=O)CS/C1=N/Nc1nc2c([nH]1)c(=O)n(C)c(=O)n2C | 17.3 µM (inactive) | > 100 µM (inactive) | > 100 µM (inactive) | > 100 µM (inactive) | 19.2 µM (inactive) | > 100 µM (inactive) | > 100 | 4.62 µM (inactive) | > 100 µM (inactive) | 38.8 µM (inactive) | > 100 µM (inactive) | 61.7 µM (inactive) | 64.1 µM (inactive) | 30 µM (inactive) | 37.8 µM (inactive) | – | > 100 µM (inactive) | > 100 µM (inactive) | 42.4 µM (inactive) | 37.8 µM (inactive)
COc1cccc(/C=N/NC(=O)CN(C)C)c1O | > 100 µM (inactive) | > 100 µM (inactive) | > 100 µM (inactive) | > 100 µM (inactive) | > 100 µM (inactive) | > 100 µM (inactive) | > 100 | > 100 µM (inactive) | > 100 µM (inactive) | > 100 µM (inactive) | > 100 µM (inactive) | > 100 µM (inactive) | > 100 µM (inactive) | – | > 100 µM (inactive) | < 0.01 µM (active) | > 100 µM (inactive) | 72.8 µM (inactive) | – | > 100 µM (inactive)
CC(=O)NCCC1CN(C(=O)/C=C\C#C[Si](C)(C)C)c2ccccc21 (stereo not given) | – | 45.3 µM (inactive) | 27.5 µM (inactive) | 13.8 µM (inactive) | 23.3 µM (inactive) | 14.8 µM (inactive) | 17.2 | – | 14.1 µM (inactive) | 13.1 µM (inactive) | 11.9 µM (inactive) | 10.5 µM (inactive) | 16 µM (inactive) | 14 µM (inactive) | 26.3 µM (inactive) | – | 26.9 µM (inactive) | 14.9 µM (inactive) | 10.5 µM (inactive) | 6.35 µM (inactive)
N[C@@H]1c2c(Br)sc(Br)c2[C@H](O)[C@@H]1O | > 100 µM (inactive) | > 100 µM (inactive) | > 100 µM (inactive) | > 100 µM (inactive) | > 100 µM (inactive) | > 100 µM (inactive) | > 100 | – | > 100 µM (inactive) | > 100 µM (inactive) | > 100 µM (inactive) | > 100 µM (inactive) | > 100 µM (inactive) | > 100 µM (inactive) | > 100 µM (inactive) | > 100 µM (inactive) | > 100 µM (inactive) | > 100 µM (inactive) | – | > 100 µM (inactive)
COc1ccc(C2SCC(=O)N2NC(=O)c2ccc(NC(C)=O)cc2)c(OC)c1 (stereo not given) | > 100 µM (inactive) | > 100 µM (inactive) | > 100 µM (inactive) | – | > 100 µM (inactive) | > 100 µM (inactive) | > 100 | > 100 µM (inactive) | > 100 µM (inactive) | – | > 100 µM (inactive) | – | > 100 µM (inactive) | > 100 µM (inactive) | > 100 µM (inactive) | > 100 µM (inactive) | > 100 µM (inactive) | > 100 µM (inactive) | > 100 µM (inactive) | > 100 µM (inactive)
CN(C)CCNC(=O)c1cccc2c(NCC(=O)O)c3ccccc3nc12 | 6.87 µM (inactive) | 18.6 µM (inactive) | 7.85 µM (inactive) | – | 25.3 µM (inactive) | 10.6 µM (inactive) | 10.1 | 11.6 µM (inactive) | 8.51 µM (inactive) | 11 µM (inactive) | 15.2 µM (inactive) | 10.6 µM (inactive) | 19.9 µM (inactive) | 16.7 µM (inactive) | 6.49 µM (inactive) | 17.6 µM (inactive) | 7.4 µM (inactive) | 4.82 µM (inactive) | 16.5 µM (inactive) | 10.6 µM (inactive)
CC1=CC(=O)/C(=C/NC(=S)c2ccncc2)C(=O)O1 | > 100 µM (inactive) | > 100 µM (inactive) | > 100 µM (inactive) | > 100 µM (inactive) | > 100 µM (inactive) | 46.7 µM (inactive) | > 100 | > 100 µM (inactive) | 38.7 µM (inactive) | 83.2 µM (inactive) | > 100 µM (inactive) | > 100 µM (inactive) | > 100 µM (inactive) | > 100 µM (inactive) | > 100 µM (inactive) | 61.9 µM (inactive) | > 100 µM (inactive) | 68.1 µM (inactive) | – | > 100 µM (inactive)
O=C1CCSSCCC(=O)NCCN1 | > 100 µM (inactive) | > 100 µM (inactive) | > 100 µM (inactive) | > 100 µM (inactive) | > 100 µM (inactive) | > 100 µM (inactive) | > 100 | > 100 µM (inactive) | > 100 µM (inactive) | > 100 µM (inactive) | > 100 µM (inactive) | > 100 µM (inactive) | > 100 µM (inactive) | > 100 µM (inactive) | > 100 µM (inactive) | – | > 100 µM (inactive) | > 100 µM (inactive) | > 100 µM (inactive) | > 100 µM (inactive)
COc1ccc(CC2COc3cc(OC)cc(OC)c3C2=O)cc1 (stereo not given) | 19 µM (inactive) | 79.3 µM (inactive) | 33.9 µM (inactive) | 17.5 µM (inactive) | 21.8 µM (inactive) | 29.5 µM (inactive) | 9.51 | 24.9 µM (inactive) | 28.7 µM (inactive) | 15.3 µM (inactive) | 23.6 µM (inactive) | 9.14 µM (inactive) | 18.9 µM (inactive) | 36.5 µM (inactive) | 25.2 µM (inactive) | – | 24.7 µM (inactive) | – | 15.3 µM (inactive) | 21.1 µM (inactive)
Cc1ccc2c(c1)[n+]([O-])c(N)n[n+]2[O-] | > 100 µM (inactive) | 75.3 µM (inactive) | > 100 µM (inactive) | > 100 µM (inactive) | > 100 µM (inactive) | > 100 µM (inactive) | 64.9 | > 100 µM (inactive) | 51.5 µM (inactive) | – | 63.2 µM (inactive) | 39.6 µM (inactive) | > 100 µM (inactive) | > 100 µM (inactive) | > 100 µM (inactive) | 58.1 µM (inactive) | > 100 µM (inactive) | > 100 µM (inactive) | > 100 µM (inactive) | 37.6 µM (inactive)

From ChEMBL document CHEMBL1201862, “PubChem BioAssay data set” (2004)
